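Dose response: 5 concentrations. Exposure: 48 h. Format: 96-well plates. Endpoint: linear interpolation; highest concentration if not reached. TGI marks complete inhibition of growth.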
What was measured:
Experiment in all cases: inhibition of tumour cell growth, NCI panel, 48 h
[1] = tested on: 786-0 renal
[2] = tested on: A498 renal
[3] = tested on: A549 NSCLC
[4] = tested on: ACHN renal
[5] = tested on: BT-549 breast
[6] = tested on: CAKI-1 renal
[7] = tested on: CCRF-CEM leukemia
[8] = tested on: COLO 205 colon
[9] = tested on: DU-145 prostate
[10] = tested on: EKVX NSCLC
[11] = tested on: HCC-2998 colon
[12] = tested on: HCT-116 colon
[13] = tested on: HCT-15 colon
[14] = tested on: HL-60(TB) leukemia
[15] = tested on: HOP-62 NSCLC
[16] = tested on: HOP-92 NSCLC
[17] = tested on: HS 578T breast
[18] = tested on: HT29 colon
[19] = tested on: IGROV1 ovarian
[20] = tested on: K-562 leukemia
[21] = tested on: KM12 colon
[22] = tested on: LOX IMVI melanoma
[23] = tested on: M14 melanoma
[24] = tested on: MALME-3M melanoma
[25] = tested on: MCF7 breast
[26] = tested on: MDA-MB-231 breast
[27] = tested on: MDA-MB-435
[28] = tested on: MDA-N
[29] = tested on: MOLT-4 leukemia
[30] = tested on: NCI-H226 lung
[31] = tested on: NCI-H23 lung
[32] = tested on: NCI-H460 lung
[33] = tested on: NCI-H522 lung
[34] = tested on: NCI/ADR-RES ovarian
[35] = tested on: OVCAR-3 ovarian
[36] = tested on: OVCAR-4 ovarian
[37] = tested on: OVCAR-5 ovarian
[38] = tested on: OVCAR-8 ovarian
[39] = tested on: PC-3 prostate
[40] = tested on: RPMI-8226 leukemia
[41] = tested on: RXF 393 renal
[42] = tested on: SF-268 CNS
[43] = tested on: SF-295 CNS
[44] = tested on: SF-539 CNS
[45] = tested on: SK-MEL-2 melanoma
[46] = tested on: SK-MEL-28 melanoma
[47] = tested on: SK-MEL-5 melanoma
[48] = tested on: SK-OV-3 ovarian
[49] = tested on: SN12C renal
[50] = tested on: SNB-19 CNS
[51] = tested on: SNB-75 CNS
[52] = tested on: SR leukemia
[53] = tested on: SW-620 colon
[54] = tested on: T-47D breast
[55] = tested on: TK-10 renal
[56] = tested on: U251 CNS
[57] = tested on: UACC-257 melanoma
[58] = tested on: UACC-62 melanoma
[59] = tested on: UO-31 renal

`O=C(O)c1ccccc1C1CCCc2c1[nH]c1ccccc21` (stereo not drawn) showed a TGI [1] greater than 100 µM, a TGI [2] of 85.9 µM and a TGI [3] greater than 100 µM. The TGI [4] was greater than 100 µM, the TGI [5] was greater than 100 µM and the TGI [6] was greater than 100 µM. The TGI [7] was 76.2 µM, the TGI [8] was greater than 100 µM and the TGI [9] was greater than 100 µM. For the same compound, the TGI [10] was greater than 100 µM, the TGI [11] was greater than 100 µM and the TGI [12] was greater than 100 µM. The TGI [13] was greater than 100 µM, the TGI [14] was greater than 100 µM and the TGI [15] was greater than 100 µM. For the same compound, the TGI [16] was greater than 100 µM, the TGI [17] was greater than 100 µM and the TGI [18] was greater than 100 µM. It also gave a TGI [19] greater than 100 µM, a TGI [20] greater than 100 µM and a TGI [21] greater than 100 µM. The TGI [22] was greater than 100 µM, the TGI [23] was greater than 100 µM and the TGI [24] was greater than 100 µM. The TGI [25] was greater than 100 µM, the TGI [26] was greater than 100 µM and the TGI [27] was greater than 100 µM. It also gave a TGI [28] greater than 100 µM, a TGI [29] greater than 100 µM and a TGI [30] greater than 100 µM. The TGI [31] was greater than 100 µM, the TGI [32] was greater than 100 µM and the TGI [33] was greater than 100 µM. The TGI [34] was greater than 100 µM, the TGI [35] was greater than 100 µM and the TGI [36] was greater than 100 µM. It also gave a TGI [37] greater than 100 µM, a TGI [38] greater than 100 µM and a TGI [39] greater than 100 µM. For the same compound, the TGI [40] was greater than 100 µM, the TGI [41] was greater than 100 µM and the TGI [42] was greater than 100 µM. For the same compound, the TGI [43] was greater than 100 µM, the TGI [44] was greater than 100 µM and the TGI [45] was greater than 100 µM. The TGI [46] was greater than 100 µM, the TGI [47] was greater than 100 µM and the TGI [48] was greater than 100 µM. It also gave a TGI [49] greater than 100 µM, a TGI [50] greater than 100 µM and a TGI [51] of 59.3 µM. For the same compound, the TGI [52] was greater than 100 µM, the TGI [53] was greater than 100 µM and the TGI [54] was 71 µM. The TGI [55] was greater than 100 µM, the TGI [56] was greater than 100 µM and the TGI [57] was greater than 100 µM. For the same compound, the TGI [58] was greater than 100 µM and the TGI [59] was greater than 100 µM.

`O=c1[nH]c2cc(C(F)(F)F)ccc2nc1CBr` was tested, and the TGI [1] was 19.2 µM, the TGI [2] was 33 µM and the TGI [3] was 27.4 µM. The TGI [4] was 20.2 µM, the TGI [5] was 27.5 µM and the TGI [6] was 17.5 µM. It also gave a TGI [7] of 5.73 µM, a TGI [8] of 35.8 µM and a TGI [9] of 23.1 µM. For the same compound, the TGI [10] was 29.5 µM, the TGI [11] was 33.2 µM and the TGI [12] was 28.7 µM. For the same compound, the TGI [13] was 33.3 µM, the TGI [14] was 14.3 µM and the TGI [15] was 28.7 µM. It also gave a TGI [16] of 11.1 µM, a TGI [17] of 56.6 µM and a TGI [18] of 38.6 µM. It also gave a TGI [19] of 24.5 µM, a TGI [20] greater than 100 µM and a TGI [21] of 31.4 µM. The TGI [22] was 12.8 µM, the TGI [23] was 21.1 µM and the TGI [24] was 27.4 µM. The TGI [25] was 21.7 µM, the TGI [26] was 35.6 µM and the TGI [27] was 26.2 µM. The TGI [28] was 26.9 µM, the TGI [29] was greater than 100 µM and the TGI [30] was 26.7 µM. The TGI [31] was 38.6 µM, the TGI [32] was 32.3 µM and the TGI [33] was 1.52 µM. For the same compound, the TGI [34] was 50.4 µM, the TGI [35] was 23.7 µM and the TGI [36] was 32.3 µM. The TGI [37] was 29.3 µM, the TGI [38] was 39.6 µM and the TGI [39] was 26.3 µM. It also gave a TGI [40] of 69.8 µM, a TGI [41] of 25.2 µM and a TGI [42] of 59.1 µM. For the same compound, the TGI [43] was 28.9 µM, the TGI [44] was 16.1 µM and the TGI [45] was 26.6 µM. For the same compound, the TGI [46] was 30 µM, the TGI [47] was 28.5 µM and the TGI [48] was 35.2 µM. It also gave a TGI [49] of 34.8 µM, a TGI [50] of 32.7 µM and a TGI [51] of 30.7 µM. The TGI [52] was greater than 100 µM, the TGI [53] was 37.6 µM and the TGI [54] was 33.3 µM. It also gave a TGI [55] of 27.9 µM, a TGI [56] of 24.8 µM and a TGI [57] of 28.7 µM. It also gave a TGI [58] of 23.2 µM and a TGI [59] of 18.1 µM.
